Measurements reported in US6551999B1, “Angiogenesis inhibitor” (Senju Pharmaceutical Co., Ltd., priority 1995, dated 2003).
pIC50: −log10 of the molar value. Where two headings read alike, the source gives them in different places. Peptide text beside a SMILES is read from it. * marks the point of attachment. Tos = Cc1ccc(S(=O)(=O)*)cc1

Target: T1, μ-calpain (Homo sapiens, UniProt P07384)
T1 construct: purchased Nakalai Tesque
T1 sequence (P07384 1-714): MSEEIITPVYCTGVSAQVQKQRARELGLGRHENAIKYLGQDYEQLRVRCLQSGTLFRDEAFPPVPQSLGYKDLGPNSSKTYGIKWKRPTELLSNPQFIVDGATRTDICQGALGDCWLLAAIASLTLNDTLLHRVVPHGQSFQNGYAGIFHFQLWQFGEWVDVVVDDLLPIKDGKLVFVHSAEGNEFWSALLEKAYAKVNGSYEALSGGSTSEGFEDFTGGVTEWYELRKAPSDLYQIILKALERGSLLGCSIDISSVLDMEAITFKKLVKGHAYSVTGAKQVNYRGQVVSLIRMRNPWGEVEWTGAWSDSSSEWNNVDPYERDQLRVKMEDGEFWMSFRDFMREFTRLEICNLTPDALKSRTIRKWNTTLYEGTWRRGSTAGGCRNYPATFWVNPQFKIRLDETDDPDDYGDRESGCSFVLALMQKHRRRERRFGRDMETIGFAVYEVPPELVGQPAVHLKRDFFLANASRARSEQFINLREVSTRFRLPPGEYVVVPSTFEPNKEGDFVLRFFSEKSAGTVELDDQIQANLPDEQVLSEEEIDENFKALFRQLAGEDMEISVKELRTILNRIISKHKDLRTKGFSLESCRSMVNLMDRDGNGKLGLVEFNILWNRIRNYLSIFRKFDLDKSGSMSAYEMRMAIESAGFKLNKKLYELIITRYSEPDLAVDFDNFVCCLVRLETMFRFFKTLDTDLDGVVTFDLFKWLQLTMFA
T1 sequence (P04632 1-268 partner): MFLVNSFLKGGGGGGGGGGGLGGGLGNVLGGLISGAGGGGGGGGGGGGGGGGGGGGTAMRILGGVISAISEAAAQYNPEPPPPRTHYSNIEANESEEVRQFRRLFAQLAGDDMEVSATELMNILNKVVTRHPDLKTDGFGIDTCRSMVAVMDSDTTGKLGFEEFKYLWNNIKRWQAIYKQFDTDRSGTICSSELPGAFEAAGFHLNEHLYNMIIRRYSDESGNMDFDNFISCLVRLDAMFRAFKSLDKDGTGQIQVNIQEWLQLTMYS
Experiment: μ-Calpain-inhibitory activity (casein substrate)
Assay type: biochemical
Details: 60 minutes at 30° C., pH 7.4, 4 mM calcium chloride
Description: Thus, to a solution containing 0.5 mg/ml casein, 50 mM Tris-HCl (pH 7.4), 20 mM dithiothreitol, and 4 mM calcium chloride was added 2.5 μl of a dimethyl sulfoxide solution containing a varying concentration of the test drug as well as 0.03 unit of μcalpain to initiate the reaction. The final liquid volume was 250 μl. After 60 minutes of reaction at 30° C., 100 μl of the reaction mixture was transferred to another vessel, to which 50 μl of purified water and 100 μl of 50% Coumassie brilliant blue solution were added. […] As a control, 2.5 μl of dimethyl sulfoxide not containing the test drug was added and the mixture was treated in the same manner as above. […] Similarly, the value found by adding 0.2 mM EDTA in lieu of 4 mM aqueous calcium chloride solution was used as the blank value. […] [formula]

[1] = read-out: Calpain 50% inhibitory concentration (IC50)

Structure (SMILES)	pIC50	pIC50 [1]
COc1ccc(N2CCN(C(=O)[C@H](CC(C)C)NC(=O)[C@H]3O[C@@H]3C(=O)O)CC2)cc1 [Compound 20, (2s,3s)-3-[[[[(1s)-1-[[4-(4-methoxyphenyl)-1-piperazinyl]carbonyl]-3-methyl]butyl]amino]carbonyl]oxiranecarboxylic acid]	–	5.92
CC(C)C[C@H](NC(=O)[C@H]1O[C@@H]1C(=O)O)C(=O)N1CCN(S(=O)(=O)N(C)C)CC1 [Compound 15, (2s,3s)-3-[[[[(1s)-1-[(4-dimethylsulfamoyl-1-piperazinyl)carbonyl]-3-methyl]butyl]amino]carbonyl]oxiranecarboxylic acid]	5.96	–
O=C(O)[C@H]1O[C@@H]1C(=O)N1CCC[C@H]1C(=O)N1CCN(c2ccccc2Cl)CC1 [Compound 27, (2s,3s)-3-[[(2s)-2-[[4-(2-chloro-phenyl)-1-piperazinyl]carbonyl]-1-pyrrolidinyl]carbonyl]oxiranecarboxylic acid]	2.62	–
CC(C)[C@H](NC(=O)[C@H]1O[C@@H]1C(=O)O)C(=O)N1CCN(c2ccccc2Cl)CC1 [Compound 21, (2s,3s)-3-[[[[(1s)-1-[[4-(2-chlorophenyl)-1-piperazinyl]carbonyl]-2-methyl]propyl]amino]carbonyl]oxiranecarboxylic acid]	6.02	–
O=C(O)[C@H]1O[C@@H]1C(=O)NCCC(=O)N1CCN(c2ccccc2Cl)CC1 [Compound 25, (2s,3s)-3-[[[2-[[4-(2-chlorophenyl)-1-piperazinyl]carbonyl]ethyl]amino]carbonyl]oxiranecarboxylic acid]	4.39	–
O=C[C@H](Cc1c[nH]c2ccccc12)NC(=O)C1(NS(=O)(=O)c2ccc3ccccc3c2)CCCCC1 [Compound 50, 1-(2-naphthalenesulfonylamino)cyclohexanecarbonyl-L-tryptophanal]	6.44	–
C[C@H](NC(=O)[C@H]1O[C@@H]1C(=O)O)C(=O)N1CCN(c2ccccc2Cl)CC1 [Compound 23, (2s,3s)-3-[[[(1s)-1-[[4-(2-chlorophenyl)-1-piperazinyl]carbonyl]ethyl]amino]carbonyl]oxiranecarboxylic acid]	5.29	–
CCOC(=O)[C@H]1O[C@@H]1C(=O)N[C@@H](CC(C)C)C(=O)N1CCN(c2ccc(F)cc2)CC1 [Compound 3, ethyl (2s,3s)-3-[[[[(1s)-1-[[4-(4-fluorophenyl)-1-piperazinyl]carbonyl]-3-methyl]butyl]amino]carbonyl]oxiranecarboxylate]	–	4.33
CC(C)C[C@H](NC(=O)[C@H]1O[C@@H]1C(=O)O)C(=O)N1CCN(c2ccc(Cl)cc2)CC1 [Compound 19, (2s,3s)-3-[[[[(1s)-1-[[4-(4-chlorophenyl)-1-piperazinyl]carbonyl]-3-methyl]butyl]amino]carbonyl]oxiranecarboxylic acid]	6.31	–
CC(C)C[C@H](NC(=O)[C@H]1O[C@@H]1C(=O)O)C(=O)N1CCN(c2cccc(Cl)c2)CC1 [Compound 18, (2s,3s)-3-[[[[(1s)-1-[[4-(3-chlorophenyl)-1-piperazinyl]carbonyl]-3-methyl]butyl]amino]carbonyl]oxiranecarboxylic acid]	6.20	–
O=C(O)[C@H]1O[C@@H]1C(=O)NC1(C(=O)N2CCN(c3ccc(F)cc3)CC2)CCCC1 [Compound 31, (2s,3s)-3-[[[(1s)-1-[[4-(4-fluorophenyl)-1-piperazinyl]carbonyl]-1-cyclopentyl]amino]carbonyl]oxiranecarboxylic acid]	3.82	–
CCCC[C@H](NS(=O)(=O)c1ccc(F)cc1)C(=O)N[C@H](C=O)CC(C)C [Compound 40, N-(4-fluorophenylsulfonyl)-L-norleucyl-L-leucinal]	6.59	–
CC(C)C[C@H](NC(=O)[C@H]1O[C@@H]1C(=O)O)C(=O)N1CCN(c2ccccc2)CC1 [Compound 14, (2s,3s)-3-[[[[(1s)-1-[(4-phenyl-1-piperazinyl)carbonyl]-3-methyl]butyl]amino]carbonyl]oxiranecarboxylic acid]	6.11	–
NC(=O)CC[C@H](NC(=O)[C@H]1O[C@@H]1C(=O)O)C(=O)N1CCN(c2ccccc2Cl)CC1 [Compound 30, (2s,3s)-3-[[[[(1s)-1-[[4-(2-chlorophenyl)-1-piperazinyl]carbonyl]-3-carbamoyl]propyl]amino]carbonyl]oxiranecarboxylic acid]	5.22	–
Cc1ccc(S(=O)(=O)N2CCN(C(=O)[C@H](CC(C)C)NC(=O)[C@H]3O[C@@H]3C(=O)NO)CC2)cc1 [Compound 33, (2s,3s)-3-[[[[(1s)-1-[[4-(4-methylphenylsulfonyl)-1-piperazinyl]carbonyl]-3-methyl]butyl]amino]carbonyl]oxiranecarbohydroxamic acid]	5.72	–

Further lines, with some results ahead:

pIC50	Structure (SMILES)	pIC50 [1]
6.70	O=C[C@H](Cc1ccccc1)NC(=O)C1(NS(=O)(=O)c2ccc3ccccc3c2)CCCCC1 [Compound 47]	–
7.51	CC(C)C[C@@H](C=O)NC(=O)[C@@H](NS(=O)(=O)c1ccc(Cl)cc1)C(C)C [Compound 36, N-(4-chlorophenylsulfonyl)-L-valyl-L-leucinal]	–
8.00	CC(C)C[C@@H](C=O)NC(=O)[C@@H](NS(=O)(=O)c1ccc2ccccc2c1)C(C)C [Compound 34, N-(2-naphthalenesulfonyl)-L-valyl-L-leucinal]	–
7.52	CC(C)[C@H](NS(=O)(=O)c1ccc(F)cc1)C(=O)NC(C=O)CC1CCCCC1 (stereo partly drawn) [Compound 52, N-(4-fluorophenylsulfonyl)-L-valyl-L-cyclohexylalaninal]	–
7.85	CC(C)[C@H](NS(=O)(=O)c1ccc(Cl)cc1)C(=O)N[C@H](C=O)Cc1ccccc1 [Compound 45, N-(4-chlorophenylsulfonyl)-L-valyl-L-phenylalaninal]	–
7.85	CC(C)[C@H](NS(=O)(=O)c1ccc(Cl)cc1)C(=O)NC(C=O)CC1CCCCC1 (stereo partly drawn) [Compound 54, N-(4-chlorophenylsulfonyl)-L-valyl-L-cyclohexylalaninal]	–
6.89	CCC[C@H](NS(=O)(=O)c1ccc(F)cc1)C(=O)N[C@H](C=O)CC(C)C [Compound 41, N-(4-fluorophenylsulfonyl)-L-norvalyl-L-leucinal]	–
5.21	CC(C)C[C@@H](C=O)NC(=O)[C@@H](NS(=O)(=O)c1ccc2ccccc2c1)C(C)(C)C [Compound 38, N-(2-naphthalenesulfonyl)-L-tert-leucyl-L-leucinal]	–
7.55	Cc1ccc(S(=O)(=O)N[C@H](C(=O)N[C@H](C=O)CC(C)C)C(C)C)cc1 [Compound 37, N-(4-methylphenylsulfonyl)-L-valyl-L-leucinal] (Tos-Val-Leu-aldehyde)	–
7.89	CC(C)[C@H](NS(=O)(=O)c1ccc(Cl)cc1)C(=O)N[C@H](C=O)Cc1c[nH]c2ccccc12 [Compound 48, N-(4-chlorophenylsulfonyl)-L-valyl-L-tryptophanal]	–
7.74	Cc1ccc(S(=O)(=O)N[C@H](C(=O)N[C@H](C=O)Cc2ccccc2)C(C)C)cc1 [Compound 46, N-(4-methylphenylsulfonyl)-L-valyl-L-phenylalaninal] (Tos-Val-Phe-aldehyde)	–
7.64	CC(C)[C@H](NS(=O)(=O)c1ccc(F)cc1)C(=O)N[C@H](C=O)Cc1c[nH]c2ccccc12 [Compound 49, N-(4-fluorophenylsulfonyl)-L-valyl-L-tryptophanal]	–
5.49	CC(C)(C)[C@H](NS(=O)(=O)c1ccc2ccccc2c1)C(=O)N[C@H](C=O)Cc1ccccc1 [Compound 42, N-(2-naphthalenesulfonyl)-L-tert-leucyl-L-phenylalaninal]	–
5.96	CC(C)(C)[C@H](NS(=O)(=O)c1ccc2ccccc2c1)C(=O)N[C@H](C=O)Cc1c[nH]c2ccccc12 [Compound 51, N-(2-naphthalenesulfonyl)-L-tert-leucyl-L-tryptophanal]	–
7.85	CC(C)[C@H](NS(=O)(=O)c1ccc2ccccc2c1)C(=O)N[C@H](C=O)Cc1ccccc1 [Compound 44, N-(2-naphthalenesulfonyl)-L-valyl-L-phenylalaninal]	–
